{"source": "paper PMC5458078", "about": "“Global mapping of CARM1 substrates defines enzyme specificity and substrate recognition” (Nature Communications, 2017)", "key": {"[1]": {"tested_on": "MCF7 cells", "assay": "Quantitative nanoLC-MS/MS (TMT) of ADMA-containing peptides, CARM1 KO vs parental", "type": "cell-based, human", "set-up": "Fold change KO/WT: scale not given here"}, "[2]": {"tested_on": "MCF7 CARM1 KO cells", "assay": "Quantitative MS of ADMA-containing peptides in MCF7 CARM1 KO cells expressing CARM1 28-608 or CARM1 140-608, and in CARM1 KO", "type": "cell-based, human"}, "[3]": {"conditions": "MCF7, CARM1 knockout vs wild type, n = 3 each"}, "[4]": {"conditions": "mean, CARM1 140-608 versus WT (log2 scale)"}, "[5]": {"conditions": "mean, CARM1 KO versus WT (log2 scale)"}, "[6]": {"conditions": "CARM1 KO vs wild type MCF7 cells, 3 biological replicates each"}, "[7]": {"conditions": "CARM1 140-608 versus WT, difference of mean log2 values"}, "[8]": {"conditions": "CARM1 KO versus WT, difference of mean log2 values"}, "[9]": {"conditions": "ADMA-containing peptide, MCF7, CARM1 knockout (KO1-3) vs wild type (WT1-3), TMT 6-plex experiment #1"}, "[10]": {"conditions": "log2 scale ratio, mean of n = 3"}, "[11]": {"conditions": "MCF7 CARM1 knockout vs wild type, 3 biological replicates each, values are on log2 scale"}, "[12]": {"conditions": "MCF7, CARM1 KO (KO1-KO3) vs wild type (WT1-WT3)"}, "[13]": {"conditions": "CARM1 140-608 vs WT, mean of 3 replicates (log2 scale)"}, "[14]": {"conditions": "KO vs WT, mean of 3 replicates (log2 scale)"}, "[15]": {"conditions": "MCF7, CARM1 KO vs WT, three biological replicates each"}, "[16]": {"conditions": "CARM1 140-608 vs WT, mean of 3 replicates, log2"}, "[17]": {"conditions": "KO vs WT, mean of 3 replicates, log2"}, "[18]": {"conditions": "ratio on log2 scale, mean of 3 replicates"}}}
{"substance": "LSAETWDLLrLPLER", "values": [{"measurement": "Fold change KO/WT", "setting": "[1]; [3]", "result": -3.314}, {"measurement": "CARM1 140-608/WT", "setting": "[2]; [4]", "result": -2.21}, {"measurement": "KO/WT", "setting": "[2]; [5]", "result": -3.314}]}
{"substance": "LTVPrYSIPTGDPPPYPEIASQLAQGR", "values": [{"measurement": "Fold change KO/WT", "setting": "[1]; [6]", "result": -2.163}, {"measurement": "CARM1 140-608/WT", "setting": "[2]; [7]", "result": -0.6093}, {"measurement": "KO/WT", "setting": "[2]; [8]", "result": -2.766}]}
{"substance": "LVPrLSVGAVSSKPTTPTIATPQTVSVPNK", "values": [{"measurement": "Fold change KO/WT", "setting": "[1]; [9]", "result": -1.953}, {"measurement": "CARM1 140-608/WT", "setting": "[2]; [10]", "result": -1.646}, {"measurement": "KO/WT", "setting": "[2]; [10]", "result": -1.953}]}
{"substance": "LYrYSPQSFLPDSTIQK", "values": [{"measurement": "Fold change KO/WT", "setting": "[1]; [11]", "result": -2.857}, {"measurement": "CARM1 140-608/WT", "setting": "[2]; [4]", "result": -2.17}, {"measurement": "KO/WT", "setting": "[2]; [5]", "result": -2.857}]}
{"substance": "LrQQLQAK", "values": [{"measurement": "Fold change KO/WT", "setting": "[1]; ADMA-containing peptide, CARM1 knockout (KO) vs wild type (WT) MCF7 cells, 6-plex TMT experiment #1, three biological replicates each, sheet \"MCF7\"", "result": -3.626}, {"measurement": "CARM1 140-608/WT", "setting": "[2]; difference of log2 means, CARM1 140-608 vs WT", "result": -1.5575}, {"measurement": "KO/WT", "setting": "[2]; difference of log2 means, KO vs WT", "result": -2.723}]}
{"substance": "MAPALSGANLTSPrVPLSAYER", "values": [{"measurement": "Fold change KO/WT", "setting": "[1]; [9]", "result": -4.135}, {"measurement": "CARM1 140-608/WT", "setting": "[2]; [10]", "result": -3.667}, {"measurement": "KO/WT", "setting": "[2]; [10]", "result": -5.009}]}
{"substance": "MGAGMGFGLErMAAPIDR", "values": [{"measurement": "Fold change KO/WT", "setting": "[1]; [11]", "result": -3.039}, {"measurement": "CARM1 140-608/WT", "setting": "[2]; [4]", "result": -2.085}, {"measurement": "KO/WT", "setting": "[2]; [5]", "result": -3.039}]}
{"substance": "MGLLSPSGIGGVSPrHALTSPSLGGQGR", "values": [{"measurement": "Fold change KO/WT", "setting": "[1]; [12]", "result": -1.616}, {"measurement": "CARM1 140-608/WT", "setting": "[2]; [13]", "result": -0.809}, {"measurement": "KO/WT", "setting": "[2]; [14]", "result": -1.616}]}
{"substance": "MGTPVPRPPQDMGQIGVrTPLGPrVAAPVGPVGPTPTVLPMGAPVPRPR", "values": [{"measurement": "Fold change KO/WT", "setting": "[1]; [12]", "result": -3.424}, {"measurement": "CARM1 140-608/WT", "setting": "[2]; [13]", "result": -1.595}, {"measurement": "KO/WT", "setting": "[2]; [14]", "result": -3.449}]}
{"substance": "MGTPVPRPPQDMGQIGVrTPLGPrVAAPVGPVGPTPTVLPMGAPVPRPrGPPPPPGDENR", "values": [{"measurement": "Fold change KO/WT", "setting": "[1]; [12]", "result": -3.388}, {"measurement": "CARM1 140-608/WT", "setting": "[2]; [13]", "result": -2.483}, {"measurement": "KO/WT", "setting": "[2]; [14]", "result": -3.388}]}
{"substance": "MGTPVPRPPQDMGQIGVrTPLGPrVAAPVGPVGPTPTVLPMGAPVPrPR", "values": [{"measurement": "Fold change KO/WT", "setting": "[1]; [12]", "result": -2.803}, {"measurement": "CARM1 140-608/WT", "setting": "[2]; [13]", "result": -2.519}, {"measurement": "KO/WT", "setting": "[2]; [14]", "result": -3.3286}]}
{"substance": "MGTPVPRPPQDMGQIGVrTPLGPrVAAPVGPVGPTPTVLPMGAPVPrPrGPPPPPGDENR", "values": [{"measurement": "Fold change KO/WT", "setting": "[1]; [12]", "result": -3.294}, {"measurement": "CARM1 140-608/WT", "setting": "[2]; [13]", "result": -2.604}, {"measurement": "KO/WT", "setting": "[2]; [14]", "result": -3.5517}]}
{"substance": "MGTPVPrPPQDMGQIGVRTPLGPrVAAPVGPVGPTPTVLPMGAPVPrPR", "values": [{"measurement": "Fold change KO/WT", "setting": "[1]; [12]", "result": -2.512}, {"measurement": "CARM1 140-608/WT", "setting": "[2]; [13]", "result": -3.81}, {"measurement": "KO/WT", "setting": "[2]; [14]", "result": -4.903}]}
{"substance": "MGTPVPrPPQDMGQIGVrTPLGPRVAAPVGPVGPTPTVLPMGAPVPrPR", "values": [{"measurement": "Fold change KO/WT", "setting": "[1]; [12]", "result": -3.625}, {"measurement": "CARM1 140-608/WT", "setting": "[2]; [13]", "result": -2.791}, {"measurement": "KO/WT", "setting": "[2]; [14]", "result": -3.834}]}
{"substance": "MGTPVPrPPQDMGQIGVrTPLGPrVAAPVGPVGPTPTVLPMGAPVPrPR", "values": [{"measurement": "Fold change KO/WT", "setting": "[1]; [12]", "result": -2.587}, {"measurement": "CARM1 140-608/WT", "setting": "[2]; [13]", "result": -1.761}, {"measurement": "KO/WT", "setting": "[2]; [14]", "result": -2.783}]}
{"substance": "MPTMPMLDIrPGLIPQAPGPrFPLIQPGIPPQR", "values": [{"measurement": "Fold change KO/WT", "setting": "[1]; [12]", "result": -2.649}, {"measurement": "CARM1 140-608/WT", "setting": "[2]; [13]", "result": 0.8902}, {"measurement": "KO/WT", "setting": "[2]; [14]", "result": -2.649}]}
{"substance": "MRPQPYGGTNPYSQQQGPPSGPQQGHGYPGQPYGSQTPQrYPMTMQGR", "values": [{"measurement": "Fold change KO/WT", "setting": "[1]; [15]", "result": -2.959}, {"measurement": "CARM1 140-608/WT", "setting": "[2]; [16]", "result": -0.1711}, {"measurement": "KO/WT", "setting": "[2]; [17]", "result": -1.781}]}
{"substance": "NAALGPSEPrLALAPVGPrAAMSASSEGPrLALASPrPILAPLCTPEGQK", "values": [{"measurement": "Fold change KO/WT", "setting": "[1]; [11]", "result": -3.912}, {"measurement": "CARM1 140-608/WT", "setting": "[2]; [4]", "result": -2.352}, {"measurement": "KO/WT", "setting": "[2]; [5]", "result": -3.912}]}
{"substance": "NDTKDDLGNLNVPDSSLPAENEATGPGFVPPPLAPIrGPLFPVDArGPFLR", "values": [{"measurement": "Fold change KO/WT", "setting": "[1]; [3]", "result": -2.279}, {"measurement": "CARM1 140-608/WT", "setting": "[2]; [18]", "result": 0.1654}, {"measurement": "KO/WT", "setting": "[2]; [18]", "result": -2.602}]}
{"substance": "NELIArYIK", "values": [{"measurement": "Fold change KO/WT", "setting": "[1]; [9]", "result": 0.1085}, {"measurement": "CARM1 140-608/WT", "setting": "[2]; [10]", "result": -0.332}, {"measurement": "KO/WT", "setting": "[2]; [10]", "result": -0.02143}]}
{"substance": "NHPrVYQNR", "values": [{"measurement": "Fold change KO/WT", "setting": "[1]; [9]", "result": 0.9632}, {"measurement": "CARM1 140-608/WT", "setting": "[2]; [10]", "result": -0.04969}, {"measurement": "KO/WT", "setting": "[2]; [10]", "result": 0.9632}]}
{"substance": "NPFLTGLSAPSPTNPFGAGEPGrPTLNQMR", "values": [{"measurement": "Fold change KO/WT", "setting": "[1]; [3]", "result": -3.967}, {"measurement": "CARM1 140-608/WT", "setting": "[2]; [18]", "result": -2.593}, {"measurement": "KO/WT", "setting": "[2]; [18]", "result": -3.967}]}
{"substance": "NPHTLGLSrYHPYGK", "values": [{"measurement": "Fold change KO/WT", "setting": "[1]; [6]", "result": -0.4466}, {"measurement": "CARM1 140-608/WT", "setting": "[2]; [7]", "result": -0.4138}, {"measurement": "KO/WT", "setting": "[2]; [8]", "result": -0.4466}]}
{"substance": "NRPAIArGAAGGGGR", "values": [{"measurement": "Fold change KO/WT", "setting": "[1]; [15]", "result": 0.06918}, {"measurement": "CARM1 140-608/WT", "setting": "[2]; [16]", "result": -0.06003}, {"measurement": "KO/WT", "setting": "[2]; [17]", "result": 0.534}]}
